What was measured:
[1] = system: DLD-1 cells expressing the inactive mutant form of Chk1 (S317A/-); test: Clonogenic survival assay; type: cell-based; settings: Homo sapiens; DLD-1 Chk1 S317A/-; 1 μM VE-821; read-out: viable cells remaining
Description: (§1) 500 cells of U2OS, MCF-7, DLD-1, DLD-1 Chk-1^S317A/-, DLD-1 Chk-1^+/−, DLD-1 ATR^S/S and 1000 cells of VH-10 were plated on 10 cm plate. After 5 hr. of incubation (5% CO2 at 37° C.) vehicle (0.05% DMSO max) various concentration of ATR inhibitor VE-821 were directly added to the media containing plate and incubated for 72 hr. At the end of 72 hr. of incubation, vehicle and drug containing media was replaced with fresh media and further incubated for another 5-8 days before plates were fixed and stained with 4% methylene blue in MeOH and colonies were counted manually. Each data point represents a triplicate data set±SEM.

MCF-7 cancer cells = test: Clonogenic survival assay; type: cell-based; settings: 1 μM VE-821, 72 hr, AZD7762 20 nM where combined
Description: as §1

U2OS cancer cells = test: Clonogenic survival assay; type: cell-based; settings: 1 μM VE-821, 72 hr, AZD7762 20 nM where combined
Description: as §1

Parental DLD-1 cells = test: cells; type: cell-based; settings: Homo sapiens, DLD-1, read-out: cell viability
Description: as §1

HA1EB-GFP parental cells = test: Cell viability by resazurin staining; type: cell-based; settings: 72 hours, VE-821 up to 5 μM, AZD7762 30 nM
ATR = ATR (Homo sapiens, UniProt Q13535); settings: 1 μM VE-821; cited from earlier work
[2] = system: cMYC transformed cells, HA1EB-GFP-cMYC; test: Cell viability by resazurin staining; settings: 72 hours, VE-821 up to 5 μM, AZD7762 30 nM
[3] = system: BJ RAS cells (BJ-SV40T transformed with activated H-RAS(G12V)); test: Cell viability by resazurin staining; settings: 72 hours, VE-821 up to 5 μM, AZD7762 30 nM
Description: (§2) In addition, the impact of expression of the H-RAS oncogene was assessed in the BJ-SV40T cells transformed with activated H-RAS(G12V) (BJ RAS).

[4] = system: MX-1 breast cancer cell line; settings: AZD7762 25 mg/kg intraperitoneal, VE-822 60 mg/kg oral gavage; for survival: combination P<0.05
Description: (§3) In the case of the MX-1 model, 2 million cells in 50% matrigel were injected in nude mice and for the H460 model 5 million cells in PBS were injected in nude mice. After 8-9 days of implantation animals were divided into 4 groups of 5 animals based on tumor size; with mean tumor volume of 130 mm^3. […] Body weight and tumor volume were measured twice a week. Tumor volume was measured with caliper and shown as mean±S.E.M (length×width×width×0.52).

[5] = system: H460 lung cancer cell line; settings: AZD7762 25 mg/kg intraperitoneal, VE-822 60 mg/kg oral gavage; for survival: combination vs monotherapy P<0.01; for tumor size / tumor growth: combination vs monotherapy P<0.05
Description: as §3

U2OS cells = test: Cleaved caspase-3 (apoptosis) with hydroxyurea; type: cell-based; settings: 24 hr, hydroxyurea (2 mM) alone
Description: Referring to FIG. 5, the impact of Chk1 inhibition by AZD7762 on cell apoptosis from treatment with the ATR inhibitor VE-821 and a representative DNA damaging agent, hydroxyl urea (2 mM), was assessed by measuring levels of cleaved caspase-3, a widely used marker of apoptosis. U2OS cells were treated for 24 hr. with the DNA damaging agent hydroxyurea and varied doses of AZD7762 and/or VE-821. Cells were subsequently stained with anti-cleavage caspase 3 and β actin antibodies and confocal microscopy used to take and quantify images. Data are presented as % cells positive for cleaved capsae-3.

BJ-hTERT parental cells = test: Cell viability by resazurin staining; type: cell-based; settings: 72 hours, AZD7762 30 nM
Description: Referring to FIG. 2D, an isogenic cell pair was used to assess the impact of loss of p53 and RB on cell sensitivity to the combination of VE-821 and AZD7762 (BJ-hTERT parental cells vs BJ-SV40T cells expressing the Large Tumor Antigen which inactivates p53 and RB function). In addition, the impact of expression of the H-RAS oncogene was assessed in the BJ-SV40T cells transformed with activated H-RAS(G12V) (BJ RAS). Cells were treated with either VE-821 alone (at concentrations up to 5 μM), AZD7762 alone (30 nM) or the combination of VE-821 and AZD7762 for 72 hours.

[6] = system: BJ-SV40T cells (p53 and RB inactivated); test: Cell viability by resazurin staining; settings: 72 hours, VE-821 up to 5 μM, AZD7762 30 nM
Description: as §2

Chain of ATR (Q13535 whole entry): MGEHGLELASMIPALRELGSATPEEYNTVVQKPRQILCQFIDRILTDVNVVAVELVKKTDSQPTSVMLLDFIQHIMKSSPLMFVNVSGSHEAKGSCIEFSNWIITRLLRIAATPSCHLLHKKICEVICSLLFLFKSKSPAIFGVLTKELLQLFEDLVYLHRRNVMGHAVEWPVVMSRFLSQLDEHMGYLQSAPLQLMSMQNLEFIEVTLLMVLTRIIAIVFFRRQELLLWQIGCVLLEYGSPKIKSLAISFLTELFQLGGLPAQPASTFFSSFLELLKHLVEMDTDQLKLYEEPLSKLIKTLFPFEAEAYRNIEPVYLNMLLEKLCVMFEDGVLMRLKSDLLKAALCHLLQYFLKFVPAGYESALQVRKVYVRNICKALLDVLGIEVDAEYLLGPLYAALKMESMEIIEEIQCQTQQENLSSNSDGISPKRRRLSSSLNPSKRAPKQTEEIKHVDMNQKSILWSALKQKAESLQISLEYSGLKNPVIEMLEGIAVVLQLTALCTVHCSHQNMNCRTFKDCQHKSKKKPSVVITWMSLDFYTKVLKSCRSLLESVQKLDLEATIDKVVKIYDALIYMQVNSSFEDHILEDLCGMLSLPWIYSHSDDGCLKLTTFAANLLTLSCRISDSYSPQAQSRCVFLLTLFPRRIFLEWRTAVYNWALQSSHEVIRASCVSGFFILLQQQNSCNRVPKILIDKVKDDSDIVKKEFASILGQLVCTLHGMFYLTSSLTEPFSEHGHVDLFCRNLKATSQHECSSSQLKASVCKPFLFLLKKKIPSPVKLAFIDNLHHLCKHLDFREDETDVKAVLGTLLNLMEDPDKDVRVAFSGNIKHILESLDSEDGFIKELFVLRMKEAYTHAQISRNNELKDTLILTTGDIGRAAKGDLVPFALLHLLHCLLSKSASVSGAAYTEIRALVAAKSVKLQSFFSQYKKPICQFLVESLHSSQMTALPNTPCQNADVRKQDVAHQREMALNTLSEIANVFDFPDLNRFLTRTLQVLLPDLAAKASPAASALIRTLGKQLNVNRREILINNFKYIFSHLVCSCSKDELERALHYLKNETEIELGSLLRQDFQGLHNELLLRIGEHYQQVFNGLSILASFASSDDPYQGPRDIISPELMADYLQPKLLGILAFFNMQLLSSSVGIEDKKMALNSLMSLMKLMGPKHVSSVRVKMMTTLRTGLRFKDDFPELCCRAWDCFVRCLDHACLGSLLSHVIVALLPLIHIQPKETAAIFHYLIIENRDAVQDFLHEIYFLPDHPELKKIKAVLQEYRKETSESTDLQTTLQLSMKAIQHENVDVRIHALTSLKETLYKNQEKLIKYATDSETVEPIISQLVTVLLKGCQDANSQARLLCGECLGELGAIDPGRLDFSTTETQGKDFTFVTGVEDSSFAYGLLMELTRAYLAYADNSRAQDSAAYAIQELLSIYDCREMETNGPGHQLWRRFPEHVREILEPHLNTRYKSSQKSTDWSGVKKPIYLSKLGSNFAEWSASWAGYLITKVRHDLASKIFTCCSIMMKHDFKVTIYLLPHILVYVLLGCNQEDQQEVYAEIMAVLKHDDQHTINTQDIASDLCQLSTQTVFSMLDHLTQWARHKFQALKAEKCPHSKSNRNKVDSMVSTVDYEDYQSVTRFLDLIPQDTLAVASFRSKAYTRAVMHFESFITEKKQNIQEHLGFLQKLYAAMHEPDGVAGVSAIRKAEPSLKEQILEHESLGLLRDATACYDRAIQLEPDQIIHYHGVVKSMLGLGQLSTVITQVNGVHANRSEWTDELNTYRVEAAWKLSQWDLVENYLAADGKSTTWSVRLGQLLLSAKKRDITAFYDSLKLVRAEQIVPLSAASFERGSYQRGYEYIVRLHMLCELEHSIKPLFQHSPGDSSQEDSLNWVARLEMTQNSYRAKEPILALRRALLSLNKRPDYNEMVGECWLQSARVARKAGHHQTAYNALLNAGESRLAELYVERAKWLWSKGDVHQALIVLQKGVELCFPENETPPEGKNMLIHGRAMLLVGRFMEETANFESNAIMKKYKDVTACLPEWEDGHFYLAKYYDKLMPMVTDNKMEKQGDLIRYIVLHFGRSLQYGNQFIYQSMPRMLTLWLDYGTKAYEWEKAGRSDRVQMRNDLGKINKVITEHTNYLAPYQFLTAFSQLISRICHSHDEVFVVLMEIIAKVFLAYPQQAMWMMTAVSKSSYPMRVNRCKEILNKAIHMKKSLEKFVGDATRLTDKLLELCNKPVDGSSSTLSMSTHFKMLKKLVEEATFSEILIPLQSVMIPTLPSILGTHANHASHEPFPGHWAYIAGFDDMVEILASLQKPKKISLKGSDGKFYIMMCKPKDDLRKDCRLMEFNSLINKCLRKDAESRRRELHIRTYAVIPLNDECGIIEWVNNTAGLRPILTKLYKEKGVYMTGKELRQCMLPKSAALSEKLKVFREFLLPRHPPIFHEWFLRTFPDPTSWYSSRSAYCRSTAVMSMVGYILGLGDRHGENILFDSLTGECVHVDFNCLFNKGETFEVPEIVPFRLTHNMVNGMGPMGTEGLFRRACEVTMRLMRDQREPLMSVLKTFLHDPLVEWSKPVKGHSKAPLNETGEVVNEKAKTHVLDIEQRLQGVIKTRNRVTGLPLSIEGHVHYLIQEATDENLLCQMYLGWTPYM
Chain of ATR (Q8WXE1 whole entry partner): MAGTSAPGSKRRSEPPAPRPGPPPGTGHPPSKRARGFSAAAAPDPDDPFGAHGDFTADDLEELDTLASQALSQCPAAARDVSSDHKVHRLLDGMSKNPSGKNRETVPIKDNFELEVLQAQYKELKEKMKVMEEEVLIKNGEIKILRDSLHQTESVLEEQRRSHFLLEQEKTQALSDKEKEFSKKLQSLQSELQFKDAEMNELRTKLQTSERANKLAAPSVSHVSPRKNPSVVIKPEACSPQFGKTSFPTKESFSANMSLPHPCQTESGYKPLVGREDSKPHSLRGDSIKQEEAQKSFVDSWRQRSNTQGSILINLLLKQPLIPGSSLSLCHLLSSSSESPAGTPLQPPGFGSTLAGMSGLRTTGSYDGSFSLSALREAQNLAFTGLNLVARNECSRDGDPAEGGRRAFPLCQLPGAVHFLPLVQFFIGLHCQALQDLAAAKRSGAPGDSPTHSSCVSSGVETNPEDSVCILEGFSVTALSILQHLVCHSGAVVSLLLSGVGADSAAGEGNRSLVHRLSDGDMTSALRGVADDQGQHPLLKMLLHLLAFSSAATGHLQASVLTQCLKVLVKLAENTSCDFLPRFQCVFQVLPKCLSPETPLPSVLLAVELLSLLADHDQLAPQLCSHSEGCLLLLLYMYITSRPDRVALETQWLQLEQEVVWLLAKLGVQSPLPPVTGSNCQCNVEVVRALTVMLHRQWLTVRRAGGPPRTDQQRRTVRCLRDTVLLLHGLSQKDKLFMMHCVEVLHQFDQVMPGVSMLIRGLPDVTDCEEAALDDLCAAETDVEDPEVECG

SMILES | viability at 1 µM [1] | clonogenic survival (MCF-7 cancer cells) | clonogenic survival (U2OS cancer cells) | viability at 1 µM (Parental DLD-1 cells) | effect on viability (HA1EB-GFP parental cells) | ATR activity inhibited (ATR) | viable cells remaining [2] | viable cells remaining [3] | tumor size / tumor growth [4] | survival [4] | survival [5] | tumor size / tumor growth [5] | cells positive for cleaved caspase-3 (U2OS cells) | effect on viability (BJ-hTERT parental cells) | viable cells remaining [6]
CS(=O)(=O)c1ccc(-c2cnc(N)c(C(=O)Nc3ccccc3)n2)cc1 [VE-821] | < 3% | 10-20% | 10-20% | ~100% | Neither VE-821 nor AZD7762 had a marked effect | about 50% | ~40% | ~60% |  |  |  |  |  |  | 
CNCc1ccc(-c2cc(-c3nc(-c4ccc(S(=O)(=O)C(C)C)cc4)cnc3N)on2)cc1 [VE-822] |  |  |  |  |  |  |  |  | minimal impact | minimal impact | minimal impact | minimal impact |  |  | 
NC(=O)NO [hydroxyurea] |  |  |  |  |  |  |  |  |  |  |  |  | < 0.5% |  | 
NC(=O)Nc1cc(-c2cccc(F)c2)sc1C(=O)N[C@H]1CCCNC1 [AZD7762, reference compound] |  |  |  |  | Neither VE-821 nor AZD7762 had a marked effect |  | did not impact the viability | did not have a marked effect | reduced tumor growth | no impact | minimal impact | minimal impact |  | did not have a marked effect | did not have a marked effect

Source: patent US11179394B2, “Method for treating cancer using a combination of Chk1 and ATR inhibitors” (priority 2014, dated 2021)
